Measured values as given in paper PMC8213153 (PLoS ONE, 2021).
In brackets after ≈: the same amount, converted by molar mass. Like-named read-outs stand apart in the source and are kept apart here.

Key:
Assay type in all cases: cell-based
SARS-CoV-2 virus = assay: microbe, parasite or virus in culture; settings: for IC50: Severe acute respiratory syndrome coronavirus 2, Vero
IL-10 = IL-10 level of virus-infected Vero cells (ELISA)
Procedure: (§1) To enable measurement of IL-6, IL-10 and TNF-α levels, the culture medium of the treated cells was collected in sterile micro-tubes and centrifuged at 3,500 rpm for 20 minutes. The supernatants were carefully collected and diluted with aquadest at a 1:5 volume ratio and vortexed until homogenous. The samples were deposited onto a well-plate, added to ELISA reagents (Bioassay Technology Laboratory, Shanghai, China), and incubated at 37°C for 60 minutes. Reagent substrate solution was then added to the well and incubated for ten minutes at 37°C. The samples were measured for antigen concentration using the optical density (OD) plotted into the standard curves of IL-6, IL-10, and TNF-α.

IL-6 = IL-6 level of virus-infected Vero cells (ELISA)
Procedure: as §1

TNF-α = TNF-α level of virus-infected Vero cells (ELISA)
Procedure: as §1

[1] = Cytotoxicity (MTT) assay of single and dual combinatory drugs; settings: human; for CC50 at 48 h: CompuSyn, n = 3, read-out: CC50
Procedure: Each tablet containing drugs was triturated and mixed until homogenous. Approximately 50 mg equivalent mass of drugs were weighed and added to dimethyl sulfoxide in order to solubilize the drugs. The suspension was sonicated in a water bath for 15 minutes before being added to Rosewell Park Memorial Institute (RPMI) media, sonicated again and vortexed to mix it until homogenous. The suspension was then filtered through a polycarbonate membrane with a pore size of 0.45 μm and then a pore size of 0.22 μm under aseptic conditions. The filtrate was mixed with 10% foetal bovine serum and penicillin streptomycin before being vortexed to produce a homogenous mixture to be used as a stock solution. The samples were prepared by diluting the stock solution of each drug with RPMI complete media at an appropriate level of dilution to produce a determined concentration. The dual combinatory drugs mixtures were prepared by mixing appropriate amounts of two drug stock solutions in order to produce a final concentration at the required level. The combinatory drugs were evaluated at both constant and non-constant ratios to evaluate their effects on the cytotoxicity, including; antagonistic, synergistic, or additive. A constant ratio of the mixture was achieved by adding drug solutions at the same ratio, thereby increasing each drug concentration, to produce dose escalation. In contrast, at a non-constant ratio, a fixed determined concentration of drug was added to increased doses of other drug solution in order to produce different levels of drug concentration.
The cytotoxic concentration (CC50) of drugs was performed by means of MTT assay at the Stem Cell Research and Development Center, Universitas Airlangga using human umbilical cord mesenchymal stem cells which had been obtained from human placenta tissue as approved by the Ethical Committee of Universitas Airlangga Hospital (Certificate number 101/KEH/2019 dated January 10, 2019). The cells were prepared as the primary cell culture and used for the cytotoxicity assay because of their sensitivity to chemicals. Cells were seeded into 96-well microplates at a concentration of 1x10^3 cells/well in 100 μL Alpha Minimum Essentials Medium (α-MEM, Gibco, USA) supplemented with 10% foetal bovine serum, 1% penicillin-streptomycin and 1% amphotericin-B. The plates were then incubated in a CO2 incubator at 37°C with 5% CO2 for 24 hours, at which point, the supernatant was replaced with α-MEM containing drugs at each concentration and incubated for a further 48 hours. Approximately 25μL of 3-(4,5-Dimethylthiazol-2-yl)-2,5-diphenyl tetrazolium-bromide (MTT) reagent at a concentration of 5mg/mL was subsequently added to each well and incubated for four hours at 37°C with 5% CO2. Purple formazan crystals were formed and observed under an inverted microscope. Dimethyl sulfoxide was added to each well with the complete solubilisation of formazan crystals subsequently being observed. The greater the number of formazan crystals formed, the lower the toxicity of the samples which were read for optical density of formazan using a multi reader at a measurement wavelength of 595 nm (Promega Glomax, USA). The CC50 value was analyzed by CompuSyn software (the ComboSyn Inc., accessed from www.combosyn.com).
In this study, the cytotoxicity assay was evaluated for single and dual combinatory drugs during a period of 48 hours of drug incubation. This assay was intended to evaluate the toxicity of dual combinatory drugs on normal cells. The combination ratios were calculated taking into consideration the usual therapeutic doses and plasma peak concentrations of the drugs. To determine this cytotoxicity, the drugs were mixed at both constant and non-constant ratios.

[2] = HYDROXYCHLOROQUINE-AZITHROMYCIN series, read-out: Cell Viability (%)
[3] = HYDROXYCHLOROQUINE-DOXYCYCLINE series, read-out: Cell viability (%)
[4] = HYDROXYCHLOROQUINE-FAVIPIRAVIR series, read-out: Cell Viability (%)
[5] = HYDROXYCHLOROQUINE-LOPIRITO series, read-out: Cell Viability (%)

SMILES: CCN(CCO)CCCC(C)Nc1ccnc2cc(Cl)ccc12 (stereo not shown) [HCQ, Hydroxychloroquine]
- Virus Titer (SARS-CoV-2 virus; 1 μg/mL, 24-h): 38.64 viral protein fg/mL
- Virus Titer (SARS-CoV-2 virus; 1 μg/mL, 72-h): 37.69 viral protein fg/mL
- Virus Titer (SARS-CoV-2 virus; 15 μg/mL, 48-h): 37.86 viral protein fg/mL
- Drug concentration that produced an undetected virus copy number (SARS-CoV-2 virus; MoI 0.04, at 24, 48, and/or 72 hours' incubation): 37.5 µg/mL
- IC50 (SARS-CoV-2 virus; 24h, MoI 0.04): 9.5 mg/L (≈ 28.3 µM)
- IC50 (SARS-CoV-2 virus; 48h, MoI 0.04): 4.7 mg/L (≈ 14 µM)
- IC50 (SARS-CoV-2 virus; 72h, MoI 0.04): 1.4 mg/L (≈ 4.17 µM)
- Results (virus detection) (SARS-CoV-2 virus; at the drug concentration of the same line of Table 4, MoI 0.04): 48, 72h virus undetected
- IL-10 (IL-10; 1 μg/mL, 24-h): 15.36 ± 0.75 pg/mL
- IL-10 (IL-10; 1 μg/mL, 48-h): 96.36 ± 0.71 pg/mL
- IL-10 (IL-10; 1 μg/mL, 72-h): 329.79 ± 0.08 pg/mL
- IL-10 (IL-10; 15 μg/mL, 24-h): 32.43 ± 1.19 pg/mL
- IL-10 (IL-10; 15 μg/mL, 72-h): 258.02 ± 9.73 pg/mL
- IL-10 (IL-10; 15 μg/mL, 48h): ↗↗ (15 μg/mL; 48h)
- IL-10 levels (in words) (IL-10; Table 5): increased
- IL-6 (IL-6; 1 μg/mL, 24-h): 15.91 ± 0.99 ng/L
- IL-6 (IL-6; 1 μg/mL, 48-h): 36.41 ± 2.01 ng/L
- IL-6 (IL-6; 1 μg/mL, 72-h): 47.64 ± 2.15 ng/L
- IL-6 (IL-6; 1 μg/mL, 24h): ↘↘ (1 μg/mL; 24h)
- IL-6 (IL-6; 15 μg/mL, 24-h): 15.91 ± 1.41 ng/L
- IL-6 (IL-6; 15 μg/mL, 48-h): 36.41 ± 0.89 ng/L
- IL-6 (IL-6; 15 μg/mL, 72-h): 39.80 ± 0.48 ng/L
- IL-6 (in words) (IL-6; Table 5): reduced
- TNF-α (TNF-α; 1 μg/mL, 24-h): 4.21 ± 0.31 pg/mL
- TNF-α (TNF-α; 1 μg/mL, 72-h): 548.17 ± 1.44 pg/mL
- TNF-α (TNF-α; 15 μg/mL, 72-h): 411.10 ± 0.18 pg/mL
- TNF-α (TNF-α; 24, 48, and 72 hours, cell without concentration): No effects
- TNF-α levels (in words) (TNF-α; Table 5): no effects
- CC50 at 48 h ([1]; HCQ-AZI experiment (Fig 7)): 5940 mg/L
- CC50 at 48 h ([1]; HCQ-DOXY experiment (Fig 8)): 1500 mg/L
- CC50 at 48 h ([1]; HCQ-FAVI experiment (Fig 10)): 11.8 mg/L
- CC50 at 48 h ([1]; HCQ-LOPIRITO experiment (Fig 11)): 2.51 mg/L
- viability at 48 h, 0.2 μg/mL [1, 2]: 85.6%
- viability at 48 h, 2 μg/mL [1, 2]: 91%
- viability at 48 h, 10 μg/mL [1, 2]: 94.4%
- viability at 48 h, 100 μg/mL [1, 2]: 46.6%
- viability at 48 h, 400 μg/mL [1, 2]: 68.6%
- viability at 48 h, 0.2 μg/mL [1, 3]: 97.1%
- viability at 48 h, 2 μg/mL [1, 3]: 97%
- viability at 48 h, 10 μg/mL [1, 3]: 98.9%
- viability at 48 h, 100 μg/mL [1, 3]: 62.1%
- viability at 48 h, 400 μg/mL [1, 3]: 56.9%
- viability at 48 h, 0.2 μg/mL [1, 4]: 51.5%
- viability at 48 h, 2 μg/mL [1, 4]: 81.9%
- viability at 48 h, 10 μg/mL [1, 4]: 93.7%
- viability at 48 h, 100 μg/mL [1, 4]: 13.3%
- viability at 48 h, 400 μg/mL [1, 4]: 9.5%
- viability at 48 h, 0.2 μg/mL [1, 5]: 35.9%
- viability at 48 h, 2 μg/mL [1, 5]: 61.7%
- viability at 48 h, 10 μg/mL [1, 5]: 81.4%
- viability at 48 h, 100 μg/mL [1, 5]: 33%
- viability at 48 h, 400 μg/mL [1, 5]: 7.4%
